In ChEMBL document CHEMBL3822364, “Synthesis, characterization and antimicrobial activity of novel Schiff base tethered boronate esters of 1,2-O-isopropylidene-α-d-xylofuranose” (2016):
In brackets after ≈: the same amount, converted by molar mass. Activity calls are given as the source filed them. No cut-off for these calls is given here.

Assays:
Streptococcus mutans [1] = experiment: Antibacterial activity against Streptococcus mutans MTCC 497 assessed as zone of inhibition at 100 ug/well measured after 24 hrs by agar well diffusion method; type: functional; details: MTCC 497, 24 h, read-out: DIZ
Micrococcus luteus [2] = experiment: Antibacterial activity against Micrococcus luteus MTCC 106 assessed as zone of inhibition at 100 ug/well measured after 24 hrs by agar well diffusion method; type: functional; details: MTCC 106, 24 h, read-out: DIZ
Salmonella typhi [3] = experiment: Antibacterial activity against Salmonella typhi measured after 24 hrs by NCCL protocol based broth dilution method; type: functional, Salmonella enterica subsp. enterica serovar Typhi
Aspergillus fumigatus [4] = experiment: Antifungal activity against Aspergillus fumigatus MTCC 343 measured after 48 hrs by NCCL protocol based broth dilution method; type: functional
Salmonella paratyphi [5] = experiment: Antibacterial activity against Salmonella paratyphi assessed as zone of inhibition at 100 ug/well measured after 24 hrs by agar well diffusion method; type: functional, Salmonella enterica subsp. enterica serovar Paratyphi A; details: Salmonella enterica, read-out: DIZ
Candida albicans [6] = experiment: Antifungal activity against Candida albicans MTCC 3017 assessed as zone of inhibition at 100 ug/well measured after 48 hrs by agar well diffusion method; type: functional; details: MTCC 3017, 48 h, read-out: DIZ
Staphylococcus aureus [7] = experiment: Antibacterial activity against Staphylococcus aureus MTCC 3160 assessed as zone of inhibition at 100 ug/well measured after 24 hrs by agar well diffusion method; type: functional; details: MTCC 3160, 24 h, read-out: DIZ
Micrococcus luteus [8] = experiment: Antibacterial activity against Micrococcus luteus MTCC 106 measured after 24 hrs by NCCL protocol based broth dilution method; type: functional
Klebsiella pneumoniae [9] = experiment: Antibacterial activity against Klebsiella pneumoniae MTCC 3384 assessed as zone of inhibition at 100 ug/well measured after 24 hrs by agar well diffusion method; type: functional; details: MTCC 3384, 24 h, read-out: DIZ
Klebsiella pneumoniae [10] = experiment: Antibacterial activity against Klebsiella pneumoniae MTCC 3384 measured after 24 hrs by NCCL protocol based broth dilution method; type: functional
Candida albicans [11] = experiment: Antifungal activity against Candida albicans MTCC 3017 measured after 48 hrs by NCCL protocol based broth dilution method; type: functional
Salmonella paratyphi [12] = experiment: Antibacterial activity against Salmonella paratyphi measured after 24 hrs by NCCL protocol based broth dilution method; type: functional, Salmonella enterica subsp. enterica serovar Paratyphi A
Streptococcus mutans [13] = experiment: Antibacterial activity against Streptococcus mutans MTCC 497 measured after 24 hrs by NCCL protocol based broth dilution method; type: functional
Salmonella typhi [14] = experiment: Antibacterial activity against Salmonella typhi assessed as zone of inhibition at 100 ug/well measured after 24 hrs by agar well diffusion method; type: functional, Salmonella enterica subsp. enterica serovar Typhi; details: Salmonella enterica, read-out: DIZ
Staphylococcus aureus [15] = experiment: Antibacterial activity against Staphylococcus aureus MTCC 3160 measured after 24 hrs by NCCL protocol based broth dilution method; type: functional
Aspergillus fumigatus [16] = experiment: Antifungal activity against Aspergillus fumigatus MTCC 343 assessed as zone of inhibition at 100 ug/well measured after 48 hrs by agar well diffusion method; type: functional; details: MTCC 343, 48 h, read-out: DIZ
[17] = Salmonella enterica subsp. enterica serovar Typhi
[18] = Salmonella enterica subsp. enterica serovar Paratyphi A

SMILES | zone of inhibition at 100 µg/disc (Streptococcus mutans [1]) [mm] | zone of inhibition at 100 µg/disc (Micrococcus luteus [2]) [mm] | MIC (Salmonella typhi [3]; Salmonella enterica) [µg/mL] | MIC (Aspergillus fumigatus [4]; MTCC 343, 48 h) [µg/mL] | zone of inhibition at 100 µg/disc (Salmonella paratyphi [5]) [mm] | zone of inhibition at 100 µg/disc (Candida albicans [6]) [mm] | zone of inhibition at 100 µg/disc (Staphylococcus aureus [7]) [mm] | MIC (Micrococcus luteus [8]; MTCC 106, 24 h) [µg/mL] | zone of inhibition at 100 µg/disc (Klebsiella pneumoniae [9]) [mm] | MIC (Klebsiella pneumoniae [10]; MTCC 3384, 24 h) [µg/mL] | MIC (Candida albicans [11]; MTCC 3017, 48 h) [µg/mL] | MIC (Salmonella paratyphi [12]; Salmonella enterica) [µg/mL] | MIC (Streptococcus mutans [13]; MTCC 497, 24 h) [µg/mL] | zone of inhibition at 100 µg/disc (Salmonella typhi [14]) [mm] | MIC (Staphylococcus aureus [15]; MTCC 3160, 24 h) [µg/mL] | zone of inhibition at 100 µg/disc (Aspergillus fumigatus [16]) [mm] | MIC (Salmonella typhi [3]; [17]) | MIC (Aspergillus fumigatus [4]) | MIC (Klebsiella pneumoniae [10]) | MIC (Salmonella paratyphi [12]; [18]) | other results
CC1(C)O[C@H]2O[C@@H]3COB(c4ccc(/C=N/c5ccccc5)cc4)O[C@@H]3[C@H]2O1 | 21 | 14 | 62.5 (≈ 165 µM) | 500 (≈ 1320 µM) | 0 | 11 | 16 | 250 (≈ 659 µM) | 21 | 62.5 (≈ 165 µM) | 125 (≈ 330 µM) | 500 (≈ 1320 µM) | 62.5 (≈ 165 µM) | 20 | 125 (≈ 330 µM) | 0 |  |  |  |  | 
CC1(C)O[C@H]2O[C@@H]3COB(c4ccc(/C=N/c5ccc(Cl)cc5)cc4)O[C@@H]3[C@H]2O1 | 22 | 13 | 62.5 (≈ 151 µM) | 500 (≈ 1210 µM) | 13 | 11 | 16 | 125 (≈ 302 µM) | 24 | 62.5 (≈ 151 µM) | 250 (≈ 604 µM) | 125 (≈ 302 µM) | 62.5 (≈ 151 µM) | 22 | 125 (≈ 302 µM) | 0 |  |  |  |  | 
CC1(C)O[C@H]2O[C@@H]3COB(c4ccc(/C=N/c5ccc(Br)cc5)cc4)O[C@@H]3[C@H]2O1 | 17 | 13 | 62.5 (≈ 136 µM) | 125 (≈ 273 µM) | 24 | 19 | 15 | 250 (≈ 546 µM) | 17 | 62.5 (≈ 136 µM) | 62.5 (≈ 136 µM) | 15.6 (≈ 34.1 µM) | 62.5 (≈ 136 µM) | 22 | 125 (≈ 273 µM) | 16 |  |  |  |  | 
CC1(C)O[C@H]2O[C@@H]3COB(c4cccc(/C=N/c5ccccc5)c4)O[C@@H]3[C@H]2O1 | 21 | 14 | 62.5 (≈ 165 µM) | 500 (≈ 1320 µM) | 21 | 11 | 13 | 250 (≈ 659 µM) | 19 | 125 (≈ 330 µM) | 250 (≈ 659 µM) | 62.5 (≈ 165 µM) | 62.5 (≈ 165 µM) | 21 | 125 (≈ 330 µM) | 0 |  |  |  |  | 
CC(C)c1ccc(/N=C/c2ccc(B3OC[C@H]4O[C@@H]5OC(C)(C)O[C@@H]5[C@H]4O3)cc2)cc1 | 19 | 13 | 62.5 (≈ 148 µM) | 500 (≈ 1190 µM) | 0 | 12 | 16 | 250 (≈ 593 µM) | 24 | 31.2 (≈ 74.2 µM) | 250 (≈ 593 µM) | 500 (≈ 1190 µM) | 125 (≈ 297 µM) | 22 | 125 (≈ 297 µM) | 0 |  |  |  |  | 
CC1(C)O[C@H]2O[C@@H]3COC(c4cccc(/C=N/c5ccc(F)cc5)c4)O[C@@H]3[C@H]2O1 (stereo not given in full) | 6 | 0 |  |  | 0 | 6 | 7 | 500 (≈ 1250 µM) | 0 |  | 500 (≈ 1250 µM) |  | 250 (≈ 626 µM) | 0 | 500 (≈ 1250 µM) | 0 | inactive | inactive | inactive | inactive | 
CC1(C)O[C@H]2O[C@@H]3COC(c4ccc(/C=N\c5ccc(F)cc5)cc4)O[C@@H]3[C@H]2O1 (stereo not given in full) | 6 | 0 |  |  | 0 | 6 | 8 | 500 (≈ 1250 µM) | 0 |  | 500 (≈ 1250 µM) |  | 250 (≈ 626 µM) | 0 | 500 (≈ 1250 µM) | 0 | inactive | inactive | inactive | inactive | 
CC1(C)O[C@H]2O[C@@H]3COB(c4cccc(/N=C/c5ccc(Br)cc5O)c4)O[C@@H]3[C@H]2O1 | 17 | 21 | 31.2 (≈ 65.9 µM) | 500 (≈ 1050 µM) | 14 | 17 | 13 | 62.5 (≈ 132 µM) | 12 | 125 (≈ 264 µM) | 125 (≈ 264 µM) | 250 (≈ 527 µM) | 125 (≈ 264 µM) | 24 | 250 (≈ 527 µM) | 0 |  |  |  |  | 
CC1(C)O[C@H]2O[C@@H]3COB(c4cccc(C=O)c4)O[C@@H]3[C@H]2O1 | 22 | 12 | 62.5 (≈ 206 µM) | 500 (≈ 1640 µM) | 18 | 11 | 15 | 250 (≈ 822 µM) | 19 | 62.5 (≈ 206 µM) | 250 (≈ 822 µM) | 62.5 (≈ 206 µM) | 62.5 (≈ 206 µM) | 18 | 250 (≈ 822 µM) | 0 |  |  |  |  | 
CC1(C)O[C@H]2O[C@@H]3COC(c4cccc(C=O)c4)O[C@@H]3[C@H]2O1 (stereo not given in full) | 0 | 0 |  |  | 0 | 0 | 0 |  | 0 |  |  |  |  | 0 |  | 0 | inactive | inactive | inactive | inactive | MIC (Micrococcus luteus [8]): inactive; MIC (Candida albicans [11]): inactive; MIC (Streptococcus mutans [13]): inactive; MIC (Staphylococcus aureus [15]): inactive
